Assay results taken from PubChem BioAssay (NCI).
Several values for one entry are separate records, joined by “and”; a condition that tells them apart may be missing. Equal entries are not always repeated.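 Method: 48-hour compound exposure of cells in 96-well plates, five concentrations, linear interpolation of endpoints. The concentration for 50% growth inhibition is given as GI50. TGI denotes the concentration required for complete inhibition of growth.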

Tests used:
Test in all cases: inhibition of tumour cell growth, NCI panel, 48 h
[1] = test system: KM12 colon
[2] = test system: NCI-H460 lung
[3] = test system: SK-MEL-28 melanoma
[4] = test system: MDA-MB-435
[5] = test system: CAKI-1 renal
[6] = test system: HS 578T breast
[7] = test system: T-47D breast
[8] = test system: MOLT-4 leukemia
[9] = test system: CCRF-CEM leukemia
[10] = test system: SW-620 colon
[11] = test system: PC-3 prostate
[12] = test system: M14 melanoma
[13] = test system: U251 CNS

| Structure (SMILES) | TGI [1] [µM] | TGI [2] [µM] | TGI [3] [µM] | TGI [4] [µM] | TGI [5] [µM] | TGI [6] [µM] | TGI [7] [µM] | TGI [8] [µM] | TGI [9] [µM] | TGI [10] [µM] | TGI [11] [µM] | TGI [12] [µM] | TGI [13] [µM] | GI50 [5] | GI50 [8] |
| --- | --- | --- | --- | --- | --- | --- | --- | --- | --- | --- | --- | --- | --- | --- | --- |
| NC(=O)N/N=C(/CC1C(=O)Oc2ccccc21)c1ccccc1O (stereo not drawn) | > 100 | > 100 | > 100 | > 100 | > 100 | > 100 | > 100 | 50.9 | 56.9 | > 100 | > 100 | > 100 | > 100 |  |  |
| Cc1nc(C)c(N2CCN(S(=O)(=O)N(Cc3ccccc3)Cc3ccccc3)CC2)c(=O)[nH]1 | > 100 | > 100 | > 100 | > 100 | > 47.9 | 38.8 | > 85.7 | > 100 | > 100 | > 100 | > 100 | > 100 | 20.4 |  |  |
| COc1ccc(C2OC(=O)c3ccc4ccccc4c32)c(C)c1 (stereo not drawn) | > 45.6 | > 54.3 | > 71.3 | 6.02 | > 100 | 45.2 | > 86 | > 39.8 | > 100 | > 72.9 | > 100 | > 38 | 30.6 |  |  |
| CN(C(=O)Cc1ccccc1)n1cnn(CC(=O)OC(C)(C)C)c1=S | > 10 | > 10 | > 10 | > 10 | > 10 | > 10 | > 10 | > 10 | > 10 | > 10 | > 10 | > 10 | > 10 |  |  |
| C=C(C(=O)O)[C@@H]1C[C@@H]2O[C@H]1[C@@H](O)[C@@H](C)CCCC(C)=CCC[C@@]2(C)O | > 100 | > 100 | > 100 | > 100 | > 100 | > 100 | > 100 | > 100 | > 100 | > 100 | > 100 | > 100 | > 100 | 37.2 µM and > 100 µM | 27.2 µM and 56.9 µM |
| c1cc2c(cc1NC1=NCCO1)OCO2 | > 100 | > 100 | > 100 | > 100 | > 100 | > 100 | > 100 | > 100 | > 21.1 | > 100 | > 100 | > 100 | > 100 |  |  |
| CCOC(=O)c1[nH]c(-c2[nH]c(-c3[nH]c(-c4[nH]c(C(=O)OCC)c(C)c4C(=O)OCC)c(C(=O)OCC)c3C)c(C)c2C(=O)OCC)c(C(=O)OCC)c1C | > 100 | > 100 | > 100 | > 100 | > 100 | > 100 | > 100 | > 100 | > 100 | > 100 | > 100 | > 100 | > 100 |  |  |
| CCN(CC)CCCNc1ccc2nc(C)n3c4ccc(O)cc4c(=O)c1c23 | 17.4 | 12.1 | 26.6 | 22 | 23.6 | 29 | 31.4 | 17 | 46.7 | 14.9 | 12.6 | 21.5 | 21 |  |  |
| Nc1nc(Cl)c(N)c(NCC2(CO)CC2)n1 | > 100 | > 100 | > 100 | > 100 | > 100 | > 100 | > 100 | > 100 | > 100 | > 100 | > 100 | > 100 | > 100 |  |  |
| Cc1cc2/c(=C\c3ccc(N(C)C)cc3)c3ccccc3n2[n+]1C | 5.54 | 2.02 | 3.19 | 1.84 | 22.3 | 8.95 | 3.76 | 1.32 | > 100 | > 32 | 2.38 | 3.73 | 1.78 |  |  |
| CCCCCCCCCCCCCCCCNC(=O)C(=O)/C=C(\O)c1ccc(C)cc1 | > 10 | > 10 | > 10 | > 10 | > 10 | > 10 | > 10 | > 10 | > 10 | > 10 | > 10 | > 10 | > 10 |  |  |
| [N-]=[N+]=NC1OC(=O)C(Cl)=C1N=P(c1ccccc1)(c1ccccc1)c1ccccc1 (stereo not drawn) | > 10 | > 10 | > 10 | > 10 | > 10 | > 10 | > 10 | 8.72 | > 10 | > 10 | > 10 | > 10 | > 10 |  |  |
